# Laboratory results: US20110319464A1, “METHODS FOR TREATING BENIGN PROSTATIC HYPERPLASIA” (KISSEI PHARMACEUTICAL CO., LTD., priority 2007, published 2011)
# Experiments:
# symptoms of BPH [1] = assay: Study C: 4 mg or 8 mg Silodosin Once Daily (KMD-3213-US021-99), U.S. Phase 2 Study; assay type: in vivo, human; conditions: Study C, 8 mg once daily
# Protocol: The 6-week stable dosing period was preceded by a 4-week placebo lead-in and a 2-week titration period. […] Male patients were selected who were at least 45 years of age with signs and symptoms of BPH (AUASS of 13 and maximum urine flow rate between 4 and 15 mL/sec). In addition, the results for IPSS/AUASS for studies A, B, D and E are illustrated in FIGS. 3 to 6, respectively, and the results for Qmax for studies A, B, D and E are illustrated in FIGS. 7 to 10, respectively.
# [2] = test system: LUTS associated with benign prostatic hyperplasia; conditions: 4 mg silodosin twice daily; cited from earlier work
# symptoms of BPH [3] = assay: Study B: 4 mg Silodosin Twice Daily (KMD-303), Japanese Phase 3 Study; assay type: in vivo, human; conditions: 4 mg twice daily
# Protocol: Safety was assessed by monitoring adverse events, clinical laboratory measurements, vital signs, and physical exams. […] In addition, the results for IPSS/AUASS for studies A, B, D and E are illustrated in FIGS. 3 to 6, respectively, and the results for Qmax for studies A, B, D and E are illustrated in FIGS. 7 to 10, respectively.
# [4] = Pharmacokinetic Study on Silodosin (Study US011), once daily for seven days, fed state; conditions: for Cmax: Day 7, mean (SD)
# clinical = conditions: male, human
# [5] = immediate-release dosage form once daily, steady state
smiles,measurement,setting,value
C[C@H](Cc1cc2c(c(C(N)=O)c1)N(CCCO)CC2)NCCOc1ccccc1OCC(F)(F)F [Silodosin],Mean Change From Baseline (CFB) in Maximum Flow Rate,symptoms of BPH [1]; 2-6 hrs after 1st dose,2.0 mL/s
same,IPSS/AUASS baseline value,symptoms of BPH [1]; Week 0,20.8
same,Maximum Flow Rate baseline value,symptoms of BPH [1]; Week 0,9.6 mL/s
same,Mean Change From Baseline (CFB) in IPSS/AUASS,symptoms of BPH [1]; Week 1,−2.7
same,Mean Change From Baseline (CFB) in Maximum Flow Rate,symptoms of BPH [1]; Week 1,2.9 mL/s
same,Mean Change From Baseline (CFB) in IPSS/AUASS,symptoms of BPH [1]; Week 2,−4.3
same,Mean Change From Baseline (CFB) in Maximum Flow Rate,symptoms of BPH [1]; Week 2,2.9 mL/s
same,Mean Change From Baseline (CFB) in IPSS/AUASS,symptoms of BPH [1]; Week 5,−4.9
same,Mean Change From Baseline (CFB) in Maximum Flow Rate,symptoms of BPH [1]; Week 5,3.2 mL/s
same,Mean Change From Baseline (CFB) in IPSS/AUASS,symptoms of BPH [1]; Week 8,−6.8
same,Mean Change From Baseline (CFB) in Maximum Flow Rate,symptoms of BPH [1]; Week 8,3.4 mL/s
same,efficacy in treating LUTS associated with BPH compared with 0.2 mg tamsulosin once daily,[2],comparable efficacy
same,Incidence of Adverse Events: Dizziness,symptoms of BPH [3],2.3 % of patients
same,Incidence of Adverse Events: Orthostatic Hypotension,symptoms of BPH [3],3.4 % of patients
same,Incidence of Adverse Events: Syncope,symptoms of BPH [3],0 % of patients
same,IPSS/AUASS baseline value,symptoms of BPH [3]; Week 0,17.1
same,Maximum Flow Rate baseline value,symptoms of BPH [3]; Week 0,9.89 mL/s
same,Mean Change From Baseline (CFB) in IPSS/AUASS,symptoms of BPH [3]; Week 1,−3.4
same,Mean Change From Baseline (CFB) in IPSS/AUASS,symptoms of BPH [3]; Week 2,−4.9
same,Mean Change From Baseline (CFB) in Maximum Flow Rate,symptoms of BPH [3]; Week 2,2.23 mL/s
same,Mean Change From Baseline (CFB) in IPSS/AUASS,symptoms of BPH [3]; Week 4,−6.3
same,Mean Change From Baseline (CFB) in Maximum Flow Rate,symptoms of BPH [3]; Week 4,2.18 mL/s
same,Mean Change From Baseline (CFB) in IPSS/AUASS,symptoms of BPH [3]; Week 8,−7.7
same,Mean Change From Baseline (CFB) in Maximum Flow Rate,symptoms of BPH [3]; Week 8,2.38 mL/s
same,Mean Change From Baseline (CFB) in IPSS/AUASS,symptoms of BPH [3]; Week 12,−8.9
same,Mean Change From Baseline (CFB) in Maximum Flow Rate,symptoms of BPH [3]; Week 12,2.33 mL/s
same,AUC,"[4]; 4 mg once daily, Day 1, mean",169.0 ng/mL
same,Mean Tmax,"[4]; 4 mg once daily, Day 7",3.0 h
same,AUC,"[4]; 4 mg once daily, Day 7, mean",171 ng/mL
same,t ½,"[4]; 4 mg once daily, Day 7, mean",12.5 h
same,Cmax,[4]; 4 mg once daily,37.2 (18.7) ng/ml
same,AUC,"[4]; 8 mg once daily, Day 1, mean",413.0 ng/mL
same,AUC,"[4]; 8 mg once daily, Day 7, mean",396 ng/mL
same,t ½,"[4]; 8 mg once daily, Day 7, mean",10.6 h
same,Cmax,[4]; 8 mg once daily,73.4 (32.4) ng/ml
same,time after administration at which Cmax is reached,[4]; [5],about 2 hours
same,time after administration at which plasma concentration falls to near baseline,[4]; [5],about 12 hours
same,concentration at 12 h,"clinical; in vivo, 8 mg",9.45 ng/mL
same,Cmax,"clinical; plasma, 4 mg",27.6 ng/mL
same,Tmax,"clinical; plasma, 4 mg",2 h
same,concentration at 0.3 h,"clinical; plasma, 4 mg",0 ng/mL
same,concentration at 8 h,"clinical; plasma, 4 mg",4.83 ng/mL
same,concentration at 12.25 h,"clinical; plasma, 4 mg",1.8 ng/mL
same,concentration at 13 h,"clinical; plasma, 4 mg",9.77 ng/mL
same,concentration at 14 h,"clinical; plasma, 4 mg",31.5 ng/mL
same,concentration at 15 h,"clinical; plasma, 4 mg",32.5 ng/mL
same,concentration at 18 h,"clinical; plasma, 4 mg",7.89 ng/mL
same,concentration at 20 h,"clinical; plasma, 4 mg",5.93 ng/mL
same,half-life,"clinical; plasma, 4 mg",10.7 h
same,Cmax,"clinical; plasma, 8 mg",63.2 ng/mL
same,Tmax,"clinical; plasma, 8 mg",1.5 h
same,concentration at 145.5 h,"clinical; plasma, 8 mg",67.9 ng/mL
same,half-life,"clinical; plasma, 8 mg",11.2 h
same,concentration at 2 h,"clinical; plasma, oral, 8 mg",54.6 ng/mL
same,concentration at 3 h,"clinical; plasma, oral, 8 mg",42.8 ng/mL
same,concentration at 4 h,"clinical; plasma, oral, 8 mg",33.2 ng/mL
same,concentration at 6 h,"clinical; plasma, oral, 8 mg",18.5 ng/mL
